From patent US20210198317A1, “REACTIVE OXYGEN PRODUCTION INHIBITOR AND/OR SCAVENGING PROMOTER” (NATIONAL UNIVERSITY CORPORATION OKAYAMA UNIVERSITY, priority 2018, published 2021)
Entries after “also recorded” stand apart in the source; their conditions may differ.

Columns and labels:
[1] = OxiSelect HORAC Activity Assay Kit: antioxidant activity against hydroxy radicals (cell-free, Fenton's reagent); assay type: biochemical; details: for antioxidant action against hydroxy radicals (fluorescence intensity): every 5 minutes for 60 minutes; for Antioxidant Activity Against Hydroxy Radicals (NetAUC): AUCsample minus AUCblank, 60 minutes
Method: Antioxidant activity against hydroxy radicals was measured with OxiSelect™ HORAC Activity Assay Kit (Cell Biolabs, San Diego, Calif.) in accordance with the specifications. A fluorescent probe solution was added to a sample solution, the mixture was incubated at 37° C. for 30 minutes, and a hydroxy radical initiator (H2O2) and Fenton's reagent were added, followed by the measurement of a fluorescence intensity (Ex/Em=485 nm/538 nm) based on the oxidation of the fluorescent probe by hydroxy radicals via hydrogen atom transfer (HAT). In the presence of hydroxy radicals, the fluorescence of the fluorescent probe is quenched, and the quenching is inhibited when antioxidant activity is present. As the sample solution, 0.01 μM to 1 μM HRG solutions, or 50 μM to 100 μM GA solutions were used. A. For each of the 50 μM to 100 μM gallic acid (GA) sample solutions, their fluorescence intensities (Ex/Em=485 nm/538 nm) were measured every 5 minutes for 60 minutes in accordance with the above-mentioned measurement method. The fluorescence intensities of GA and a blank were plotted on the vertical axis, and the measurement times were plotted on the horizontal axis. […] B. For each of the 0 μM to 1 μM HRG sample solutions, their fluorescence intensities (Ex/Em=485 nm/538 nm) were measured every 5 minutes for 60 minutes in accordance with the above-mentioned measurement method. The fluorescence intensities of HRG and a blank were plotted on the vertical axis, and the measurement times were plotted on the horizontal axis. […] The difference between the area under the curve of the fluorescence intensity of GA or HRG (AUCsample) and the area under the curve of the blank (AUCblank) was measured every 5 minutes for 60 minutes after the initiation of reaction, and NetAUC was calculated. […] In this Example, the histidine-rich peptide (SEQ ID NO: 10) was investigated for its antioxidant action against hydroxy radicals by the same technique as that of Example 1. A control peptide (SEQ ID NO: 11) was similarly investigated. A. The fluorescent probe solution was added to each solution of HRG (1 μM), the histidine-rich peptide (6 μM), or the control peptide (6 μM), and antioxidant activity against hydroxy radicals was measured by the same technique as that of Example 1. […] B. The fluorescent probe solution was added to histidine-rich peptide solutions (0.1 μM to 10 μM), and the resultant mixtures were measured for their antioxidant activity against hydroxy radicals by the same technique as that of Example 1. […] The difference between the area under the curve of the fluorescence intensity of the histidine-rich peptide or HRG (AUCsample) and the area under the curve of the blank (AUCblank) was measured every 5 minutes for 60 minutes after the initiation of reaction to calculate NetAUC.

[2] = OxiSelect ORAC Activity Assay Kit: antioxidant activity against peroxy radicals (AAPH); assay type: biochemical; details: for antioxidant action against peroxy radicals (fluorescence intensity): every 5 minutes for 60 minutes; for Antioxidant Activity Against Peroxy Radicals (NetAUC): AUCsample minus AUCblank, 60 minutes
Method: In this Example, HRG was investigated for its antioxidant action against peroxy radicals. As a positive control, Trolox was used. Antioxidant activity against peroxy radicals was measured with OxiSelect™ ORAC Activity Assay Kit (Cell Biolabs, San Diego, Calif.) in accordance with the specifications. The fluorescent probe solution was added to a sample solution, the mixture was incubated at 37° C. for 30 minutes, and added with 2,2′-azobis-(2-methylpropionamidine) dihydrochloride (AAPH), followed by immediate measurement of fluorescence intensity (Ex/Em=485 nm/538 nm). In the presence of peroxy radicals, the fluorescence of the fluorescent probe is quenched, and the quenching is inhibited when antioxidant activity is present. A. For each of 0 μM to 6.25 μM Trolox sample solutions, their fluorescence intensities (Ex/Em=485 nm/538 nm) were measured every 5 minutes for 60 minutes in accordance with the above-mentioned measurement method. […] B. For each of 0 μM to 1 μM HRG sample solutions, their fluorescence intensity (Ex/Em=485 nm/538 nm) were measured every 5 minutes for 60 minutes in accordance with the above-mentioned measurement method. […] The difference between the area under the curve of the fluorescence intensity of Trolox or HRG (AUCsample) and the area under the curve of the blank (AUCblank) was measured every 5 minutes for 60 minutes after the initiation of reaction to calculate NetAUC. […] In this Example, the histidine-rich peptide was investigated for its antioxidant action against peroxy radicals in the same manner as in Example 4. A. The fluorescent probe solution was added to each solution of HRG (1 μM), the histidine-rich peptide (6 μM), or the control peptide (6 μM), and antioxidant activity against peroxy radicals was measured by the same technique as that of Example 4. […] B. The fluorescent probe solution was added to histidine-rich peptide solutions (0.1 μM to 10 μM), and antioxidant activity against peroxy radicals was measured by the same technique as that of Example 4. […] The difference between the area under the curve of the fluorescence intensity of the histidine-rich peptide or HRG (AUCsample) and the area under the curve of the blank (AUCblank) was measured every 5 minutes for 60 minutes after the initiation of reaction to calculate NetAUC.

[3] = Calorimetry (MicroCal iTC200) metal ion-binding property, divalent metal ions; details: for binding to divalent metal ions: iron, copper, cobalt, zinc, nickel, FIG. 4A-6B
Method: (§1) In this Example, in order to investigate the binding properties of HRG to metal ions serving as essential factors in Fenton' s reaction, an experiment was performed using calorimetry. MicroCal iTC200 was used as a calorimeter, and binding properties between various metals (iron, copper, cobalt, zinc, and nickel) and samples were measured in accordance with the specifications.

[4] = Calorimetry (MicroCal iTC200) metal ion-binding property, trivalent iron ions; details: FIG. 4A, 5A, 6A
Method: as §1

[5] = OxiSelect Catalase Activity Assay Kit: catalase-like activity; assay type: biochemical; details: 0.01 μM to 1 μM; FIG. 10A-B
Method: In this Reference Example, whether HRG had catalase-like activity was investigated through use of OxiSelect™ Catalase Activity Assay Kit (Cell Biolabs, San Diego, Calif.). HRG used was plasma-derived HRG generated by the method described in Example 1. A prescribed amount of hydrogen peroxide was allowed to react with 0.01 μM to 1 μM HRG. Next, the remaining hydrogen peroxide was incubated in the presence of HRP with a probe (colorimetric measurement: DHBS+AAP; and fluorescence measurement: ADHP (10-Acetyl-3,7-dihydroxyphenoxazine)) at 37° C. for 30 minutes, and the resulting fluorescence intensity (Ex/Em=544 nm/590 nm) was measured. As a control, measurement was similarly performed for catalase.

[6] = DetectX Superoxide Dismutase (SOD) Colorimetric Activity Kit: antioxidant action against superoxide (xanthine/xanthine oxidase); assay type: biochemical; details: 0.01 μM to 1 μM; room temperature 20 minutes; absorbance 450 nm; FIG. 9A-B
Text: In this Reference Example, the antioxidant action of HRG against superoxide was investigated through use of DetectX Superoxide Dismutase (SOD) Colorimetric Activity Kit (Arbor Assays, Ann Arbor, Mich.). HRG used was plasma-derived HRG generated by the method described in Example 1. Superoxide anion (O^2−) is generated by a xanthine/xanthine oxidase (XOD) system, and is detected through use of a chromogen solution. Superoxide dismutase (SOD) is a metalloenzyme that catalyzes the conversion of O^2− into an oxygen molecule and hydrogen peroxide. The presence of SOD decreases the O^2− concentration to decrease a dye signal.
In accordance with the specifications, xanthine oxidase, and a substrate were added to 0.01 μM to 1 μM HRG solutions, and the mixtures were incubated at room temperature for 20 minutes. After that, the reaction solutions were each measured for its absorbance at a wavelength of 450 nm. As a control, measurement was similarly performed for SOD.

[7] = overall conclusion from the results

O=C(O)c1cc(O)c(O)c(O)c1 [GA, gallic acid, reference compound]
antioxidant action against hydroxy radicals (fluorescence intensity) ([1]; 50 μM to 100 μM sample solutions, FIG. 2A): antioxidant action against hydroxy radicals was recognized in a manner dependent on the concentration of GA

Cc1c(C)c2c(c(C)c1O)CCC(C)(C(=O)O)O2 (stereo not drawn) [Trolox, reference compound]
antioxidant action against peroxy radicals (fluorescence intensity) ([2]; 0 μM to 6.25 μM sample solutions, FIG. 7A): antioxidant action against peroxy radicals was recognized in a manner dependent on the concentration of Trolox

GAAPAGAAPA (Standard peptide) [control peptide, reference compound]
antioxidant activity against peroxy radicals ([2]; 6 μM, FIG. 8A): no antioxidant action
antioxidant activity against hydroxy radicals ([1]; 6 μM, FIG. 3A): no antioxidant action
binding to divalent metal ions [3]: did not bind to any of the various metal ions
binding to trivalent iron ions [4]: did not bind to any of the various metal ions

GHHPHGHHPH [histidine-rich peptide]
antioxidant activity against peroxy radicals ([2]; 0.1 μM to 10 μM, FIG. 8B): antioxidant activity in a slightly concentration-dependent manner
antioxidant activity against peroxy radicals ([2]; 6 μM, FIG. 8A): an antioxidant action, which was slightly weaker
Antioxidant Activity Against Peroxy Radicals (NetAUC) ([2]; FIG. 8C): weak as compared to HRG
antioxidant activity against hydroxy radicals ([1]; 0.1 μM to 10 μM, FIG. 3B): potent antioxidant activity in a concentration-dependent manner
antioxidant activity against hydroxy radicals ([1]; 6 μM, FIG. 3A): potent antioxidant actions
Antioxidant Activity Against Hydroxy Radicals (NetAUC) ([1]; FIG. 3C): potent antioxidant action against hydroxy radicals
antioxidant activity against hydroxy radicals [1, 7]: potent antioxidant activity against hydroxy radicals
binding to divalent metal ions [3]: bind to divalent metal ions (iron, copper, cobalt, zinc, and nickel)
binding to trivalent iron ions [4]: does not bind to trivalent iron ions

B1: HRG: Histidine-rich glycoprotein, plasma protein of 507 amino acids (SEQ ID NO: 1), generated from human plasma as a starting material (protein, listed as Homo sapiens)
chain: VSPTDCSAVEPEAEKALDLINKRRRDGYLFQLLRIADAHLDRVENTTVYYLVLDVQESDCSVLSRKYWNDCEPPDSRRPSEIVIGQCKVIATRHSHESQDLRVIDFNCTTSSVSSALANTKDSPVLIDFFEDTERYRKQANKALEKYKEENDDFASFRVDRIERVARVRGGEGTGYFVDFSVRNCPRHHFPRHPNVFGFCRADLFYDVEALDLESPKNLVINCEVFDPQEHENINGVPPHLGHPFHWGGHERSSTTKPPFKPHGSRDHHHPHKPHEHGPPPPPDERDHSHGPPLPQGPPPLLPMSCSSCQHATFGTNGAQRHSHNNNSSDLHPHKHHSHEQHPHGHHPHAHHPHEHDTHRQHPHGHHPHGHHPHGHHPHGHHPHGHHPHCHDFQDYGPCDPPPHNQGHCCHGHGPPPGHLRRRGPGKGPRPFHCRQIGSVYRLPPLRKGEVLPLPEANFPSFPLPHHKHPLKPDNQPFPQSVSESCPGKFKSGFPQVSMFFTHTFPK
antioxidant action against peroxy radicals (fluorescence intensity) ([2]; 0 μM to 1 μM sample solutions, FIG. 7B): antioxidant action against peroxy radicals was recognized in a manner dependent on the concentration of HRG
antioxidant activity against peroxy radicals ([2]; 1 μM, FIG. 8A): potent antioxidant action
Antioxidant Activity Against Peroxy Radicals (NetAUC) ([2]; FIG. 8C): had an antioxidant action against peroxy radicals
Antioxidant Activity Against Peroxy Radicals (NetAUC) ([2]; various concentrations, FIG. 7C): has an antioxidant action against peroxy radicals
antioxidant activity against peroxy radicals [2, 7]: showed an antioxidant activity against peroxy radicals
antioxidant action against hydroxy radicals (fluorescence intensity) ([1]; 0 μM to 1 μM sample solutions, FIG. 2B): antioxidant action against hydroxy radicals was recognized in a manner dependent on the concentration of HRG
antioxidant activity against hydroxy radicals ([1]; 1 μM, FIG. 3A): potent antioxidant actions
Antioxidant Activity Against Hydroxy Radicals (NetAUC) ([1]; FIG. 3C): potent antioxidant action against hydroxy radicals
Antioxidant Activity Against Hydroxy Radicals (NetAUC) ([1]; various concentrations, FIG. 2C): potent antioxidant action against hydroxy radicals
antioxidant activity against hydroxy radicals [1, 7]: potent antioxidant activity against hydroxy radicals
catalase-like activity [5]: no catalase-like activity
number of divalent metal ions bound per molecule ([3]; FIG. 4A): a large number of divalent metal ions bind to one molecule of HRG
binding to divalent metal ions [3]: bound to divalent metal ions (iron, copper, cobalt, zinc, and nickel)
scavenging activity / antioxidant action against superoxide [6]: no scavenging activity against superoxide; also recorded: hardly showed an antioxidant action against superoxide; also recorded: no antioxidant action against superoxide
binding to trivalent iron ions [4]: did not bind to trivalent iron ions
